Patent US20230035763A1, “METHODS OF TREATING CANCER USING TUBULIN BINDING AGENTS” (BeyondSpring Pharnaceuticals, Inc., priority 2018, published 2023)

What was measured:
[1] = test system: 43 human cancer cell lines (breast, lung, prostate, ovarian or CNS); test: CellTiter-Blue cell viability assay, IC70, panel of human cancer cell lines; format: cell-based; settings: 24 h treatment, then 48 h without plinabulin
Description: Plinabulin is a tubulin targeted agent that binds near the colchicine site in β-tubulin and is being tested in a Phase 3 clinical study for the treatment of non-small cell lung cancer. The colchicine site is distinct from the binding site of taxanes (e.g. Paclitaxel and docetaxel), and binding site and other differences between tubulin targeted agents are often associated with differing effects on biological functions, disease outcomes and safety profiles. Additional indications are being considered for plinabulin so a model for selecting especially responsive patients would be of significant value. As a first step towards building this model, the in vitro activity of Plinabulin against 43 human cancer cell lines (breast, lung, prostate, ovarian or CNS), previously characterized for mRNA expression with the Affymetrix HGU133 Plus 2.0 array, was evaluated. Although screening for in vitro anticancer activity is typically performed with constant treatment of the agent for 48-72 hours, cells were treated for only 24 hours with plinabulin and then cultured for another 48 hours without plinabulin.
Typically anticancer activity is judged at the 50% effect level (50% reduction in viable tumor cells), but viable cell concentration are quantified here with a Cell Titer-Blue Assay to find the concentration causing a 70% reduction in the quantity of viable tumor cells (IC70). […]

[2] = test system: A-172, SF-539, SNB-78, U-251, U-87MG; test: CellTiter-Blue cell viability assay, CNS cell lines (Active group); format: cell-based, human; set-up: key: Active: active (IC70<1 µM); Inactive: inactive (IC70>1 µM, and usually >10 µM); settings: CNS: A-172, SF-539, SNB-78, U-251, U-87MG; IC70 class, 24 h treatment + 48 h compound-free
Protocol: (§1) Working stock solution of the test compounds (Plinabulin, Docetaxel and Paclitaxel) were prepared in DMSO at a concentration of 3.14 (Plinabulin) or 3.3 mM (Docetaxel and Paclitaxel), and small aliquots were stored at −20° C. On each day of an experiment, a frozen aliquot of the working stock solutions was thawed and stored at room temperature prior to and during treatment. All liquid handling steps were done by the Tecan Freedom EVO 200 platform. First, serial half-log dilutions of the DMSO working stock solution were made in DMSO. The DMSO dilutions were then diluted 1:22 into cell culture medium in an intermediate dilution plate. Finally, 10 μl taken from the intermediate dilution plate was transferred to 140 μl/well of the final assay plate. […] Briefly, cells were harvested from exponential phase cultures, counted and plated in 96-well flat-bottom microtiter plates at a cell density of 4,000 to 60,000 cells/well dependent on the cell line's growth rate. […] After the initial application of the compounds for 24 hours, the compound-containing media was exchanged to media without compounds and incubation was continued for a further 48 hours until read-out. […] Following incubation with CellTiter-Blue® reagent for up to four hours, fluorescence (FU) was measured by using the Enspire Multimode Plate Reader (excitation λ=570 nm, emission λ=600 nm). […]

[3] = test system: Calu-, LXFL1121, NCI-H460; test: CellTiter-Blue cell viability assay, lung cell lines (Active group); format: cell-based, human; set-up: key: Active: active (IC70<1 µM); Inactive: inactive (IC70>1 µM, and usually >10 µM); settings: IC70 class, 24 h treatment + 48 h compound-free
Protocol: as §1

[4] = test system: LXFA289, LXFA526, LXFA629, LXFA983, A549, HOP-62, NCI-H322M, NCI-H226, SK-MES-1, A427, NCI-H1299, H2171, SCLC-21H; test: CellTiter-Blue cell viability assay, lung cell lines (Inactive group); format: cell-based, human; set-up: key: Active: active (IC70<1 µM); Inactive: inactive (IC70>1 µM, and usually >10 µM); settings: Lung: LXFA289, LXFA526, LXFA629, LXFA983, A549, HOP-62, NCI-H322M, IC70 class, 24 h treatment + 48 h compound-free
Protocol: as §1

[5] = test system: CAL-51, HS578T, JIMT-1, MCF10A, MX1; test: CellTiter-Blue cell viability assay, breast cell lines (Active group); format: cell-based, human; set-up: key: Active: active (IC70<1 µM); Inactive: inactive (IC70>1 µM, and usually >10 µM); settings: Breast: CAL-51, HS578T, IC70 class, 24 h treatment + 48 h compound-free
Protocol: as §1

[6] = test system: MAXFTN401, BT-474, HCC-1937, MCF7, MDA-MB-231; test: CellTiter-Blue cell viability assay, breast cell lines (Inactive group); format: cell-based, human; set-up: key: Active: active (IC70<1 µM); Inactive: inactive (IC70>1 µM, and usually >10 µM); settings: Breast: MAXFTN401, BT-474, HCC-1937, MCF7, MDA-MB-231; IC70 class, 24 h treatment + 48 h compound-free
Protocol: as §1

[7] = test system: A2780, EFO-21, EFO-27, OVCAR3; test: CellTiter-Blue cell viability assay, ovarian cell lines (Active group); format: cell-based, human; set-up: key: Active: active (IC70<1 µM); Inactive: inactive (IC70>1 µM, and usually >10 µM); settings: Ovarian: A2780, EFO-21, EFO-27, OVCAR3; IC70 class, 24 h treatment + 48 h compound-free
Protocol: as §1

OVXF899, OVXF1023 = test: CellTiter-Blue cell viability assay, ovarian cell lines (Inactive group); format: cell-based, human; set-up: key: Active: active (IC70<1 µM); Inactive: inactive (IC70>1 µM, and usually >10 µM); settings: IC70 class, 24 h treatment + 48 h compound-free
Protocol: as §1

[8] = test system: 22Rv1, DU-145, LNCaP, PC-3M; test: CellTiter-Blue cell viability assay, prostate cell lines (Active group); format: cell-based, human; set-up: key: Active: active (IC70<1 µM); Inactive: inactive (IC70>1 µM, and usually >10 µM); settings: Prostate: 22Rv1, DU-145, LNCaP, IC70 class, 24 h treatment + 48 h compound-free
Protocol: as §1

PC-3 = test: CellTiter-Blue cell viability assay, prostate cell line (Inactive group); format: cell-based, human; set-up: key: Active: active (IC70<1 µM); Inactive: inactive (IC70>1 µM, and usually >10 µM); settings: Prostate: PC-3; IC70 class, 24 h treatment + 48 h compound-free
Protocol: as §1

SMILES: CC(C)(C)c1[nH]cnc1/C=c1\[nH]c(=O)/c(=C/c2ccccc2)[nH]c1=O [Plinabulin]
- IC70 (concentration causing a 70% reduction in the quantity of viable tumor cells) ([1]; 21 cell lines of the Active category): < 1.0 µM
- IC70 (concentration causing a 70% reduction in the quantity of viable tumor cells) ([1]; 91% of the cell lines of the Inactive category): > 9.5 µM
- Plinabulin Activity [2]: Active
- Plinabulin Activity [3]: Active
- Plinabulin Activity [4]: Inactive
- Plinabulin Activity [5]: Active
- Plinabulin Activity [6]: Inactive
- Plinabulin Activity [7]: Active
- Plinabulin Activity (OVXF899, OVXF1023): Inactive
- Plinabulin Activity [8]: Active
- Plinabulin Activity (PC-3): Inactive
